Tests used:
[1] = Changelian et al., 2003; cited from earlier work
[2] = Cetkovic-Cvrlje and Ucken, 2004; cited from earlier work
[3] = NOD mouse; cited from earlier work
TYK2 = molecular target: T1, TYK2 (Homo sapiens, UniProt P29597); experiment: Kinobeads assay with immunodetection, TYK2; format: binding; conditions: for IC50: Kinobeads assay, mixed Molt4/Ramos lysate, read-out: Inhibition values (IC50) Tyk2
T1 construct: endogenous in cells; host or cells: Molt4 (ATCC CRL-1582) and Ramos (ATCC CRL-1596) cells; mixed lysate 1:2
T1 sequence (P29597 whole entry): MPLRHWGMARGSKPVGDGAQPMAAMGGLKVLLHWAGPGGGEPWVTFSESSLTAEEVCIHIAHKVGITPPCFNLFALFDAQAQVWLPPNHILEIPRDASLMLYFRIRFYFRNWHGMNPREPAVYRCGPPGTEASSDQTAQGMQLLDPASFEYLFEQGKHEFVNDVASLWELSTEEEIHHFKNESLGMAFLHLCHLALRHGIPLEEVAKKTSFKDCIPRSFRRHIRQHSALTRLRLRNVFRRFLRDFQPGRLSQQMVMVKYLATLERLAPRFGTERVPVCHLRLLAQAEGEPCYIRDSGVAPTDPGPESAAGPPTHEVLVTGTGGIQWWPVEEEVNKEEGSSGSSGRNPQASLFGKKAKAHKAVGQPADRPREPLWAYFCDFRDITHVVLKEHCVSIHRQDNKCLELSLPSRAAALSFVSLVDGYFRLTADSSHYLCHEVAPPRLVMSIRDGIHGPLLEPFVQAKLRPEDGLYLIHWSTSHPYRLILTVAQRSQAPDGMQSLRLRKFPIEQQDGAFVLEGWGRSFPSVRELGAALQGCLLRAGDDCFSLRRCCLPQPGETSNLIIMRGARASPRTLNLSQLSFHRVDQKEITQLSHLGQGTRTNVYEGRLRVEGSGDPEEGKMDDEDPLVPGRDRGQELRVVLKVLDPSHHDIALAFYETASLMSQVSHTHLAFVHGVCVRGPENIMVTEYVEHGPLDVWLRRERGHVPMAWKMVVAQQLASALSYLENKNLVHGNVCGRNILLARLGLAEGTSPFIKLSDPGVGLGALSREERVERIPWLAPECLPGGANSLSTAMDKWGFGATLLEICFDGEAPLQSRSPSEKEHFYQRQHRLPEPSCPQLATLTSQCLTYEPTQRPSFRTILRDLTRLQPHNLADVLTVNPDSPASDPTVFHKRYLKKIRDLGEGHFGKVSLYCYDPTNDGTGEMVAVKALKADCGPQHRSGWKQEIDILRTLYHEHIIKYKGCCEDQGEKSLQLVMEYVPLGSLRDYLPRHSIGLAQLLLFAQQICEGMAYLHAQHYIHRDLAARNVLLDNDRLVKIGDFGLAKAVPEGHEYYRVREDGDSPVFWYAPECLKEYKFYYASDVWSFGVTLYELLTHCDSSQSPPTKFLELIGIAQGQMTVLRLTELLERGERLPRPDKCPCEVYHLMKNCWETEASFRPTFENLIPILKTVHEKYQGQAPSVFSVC
How it was run: (§1)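 Mixed Molt4/Ramos lysate (1:2, 10 mg/mL protein) incubated 3 h in the cold with compound (1:3 series from 5 mM DMSO stock) and immobilized aminopyrido-pyrimidine Kinobeads. Bead-bound JAK1, JAK2, JAK3 and TYK2 eluted and quantified by antibody dot blot (Odyssey), IC50 from dose-response curves.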

JAK1 = molecular target: T2, JAK1 (Homo sapiens, UniProt P23458); experiment: Kinobeads assay with immunodetection, JAK1; format: binding; conditions: for IC50: Kinobeads assay, mixed Molt4/Ramos lysate, read-out: Inhibition values (IC50) JAK1
T2 construct: endogenous in cells; host or cells: Molt4 (ATCC CRL-1582) and Ramos (ATCC CRL-1596) cells; mixed lysate 1:2
T2 sequence (P23458 whole entry): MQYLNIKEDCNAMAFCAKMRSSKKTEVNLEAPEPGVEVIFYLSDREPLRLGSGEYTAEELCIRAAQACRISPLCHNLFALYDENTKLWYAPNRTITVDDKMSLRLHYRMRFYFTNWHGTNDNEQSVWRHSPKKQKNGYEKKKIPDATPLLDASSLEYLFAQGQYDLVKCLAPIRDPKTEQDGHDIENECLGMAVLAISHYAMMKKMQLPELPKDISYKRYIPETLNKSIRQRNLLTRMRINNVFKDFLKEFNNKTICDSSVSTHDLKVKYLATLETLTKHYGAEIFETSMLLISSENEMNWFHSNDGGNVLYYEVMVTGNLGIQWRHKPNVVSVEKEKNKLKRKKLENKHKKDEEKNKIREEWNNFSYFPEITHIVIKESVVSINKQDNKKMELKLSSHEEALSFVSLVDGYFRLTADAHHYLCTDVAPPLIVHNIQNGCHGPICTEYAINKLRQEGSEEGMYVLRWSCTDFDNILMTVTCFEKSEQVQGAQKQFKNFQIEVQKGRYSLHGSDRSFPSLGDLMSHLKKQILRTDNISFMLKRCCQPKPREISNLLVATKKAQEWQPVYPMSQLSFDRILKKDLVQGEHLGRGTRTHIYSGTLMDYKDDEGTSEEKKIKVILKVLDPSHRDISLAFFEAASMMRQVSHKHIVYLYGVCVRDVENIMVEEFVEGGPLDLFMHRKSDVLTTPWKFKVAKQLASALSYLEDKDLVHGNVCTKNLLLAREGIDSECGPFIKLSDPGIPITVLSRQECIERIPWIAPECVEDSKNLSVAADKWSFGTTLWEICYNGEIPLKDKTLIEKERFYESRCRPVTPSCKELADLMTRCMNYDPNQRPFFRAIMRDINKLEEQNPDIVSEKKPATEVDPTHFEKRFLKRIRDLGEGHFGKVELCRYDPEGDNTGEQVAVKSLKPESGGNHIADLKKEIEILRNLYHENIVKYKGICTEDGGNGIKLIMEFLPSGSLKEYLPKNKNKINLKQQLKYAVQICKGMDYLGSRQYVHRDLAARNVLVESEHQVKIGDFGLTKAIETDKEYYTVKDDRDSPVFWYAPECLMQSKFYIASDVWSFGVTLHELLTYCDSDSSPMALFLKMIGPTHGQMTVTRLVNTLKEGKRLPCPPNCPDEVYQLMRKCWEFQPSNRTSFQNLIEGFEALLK
How it was run: as §1

JAK3 = molecular target: T3, JAK3 (Homo sapiens, UniProt P52333); experiment: Kinobeads assay with immunodetection, JAK3; format: binding; conditions: for IC50: Kinobeads assay, mixed Molt4/Ramos lysate, read-out: Inhibition values (IC50) JAK3
T3 construct: endogenous in cells; host or cells: Molt4 (ATCC CRL-1582) and Ramos (ATCC CRL-1596) cells; mixed lysate 1:2
T3 sequence (P52333 1-1124): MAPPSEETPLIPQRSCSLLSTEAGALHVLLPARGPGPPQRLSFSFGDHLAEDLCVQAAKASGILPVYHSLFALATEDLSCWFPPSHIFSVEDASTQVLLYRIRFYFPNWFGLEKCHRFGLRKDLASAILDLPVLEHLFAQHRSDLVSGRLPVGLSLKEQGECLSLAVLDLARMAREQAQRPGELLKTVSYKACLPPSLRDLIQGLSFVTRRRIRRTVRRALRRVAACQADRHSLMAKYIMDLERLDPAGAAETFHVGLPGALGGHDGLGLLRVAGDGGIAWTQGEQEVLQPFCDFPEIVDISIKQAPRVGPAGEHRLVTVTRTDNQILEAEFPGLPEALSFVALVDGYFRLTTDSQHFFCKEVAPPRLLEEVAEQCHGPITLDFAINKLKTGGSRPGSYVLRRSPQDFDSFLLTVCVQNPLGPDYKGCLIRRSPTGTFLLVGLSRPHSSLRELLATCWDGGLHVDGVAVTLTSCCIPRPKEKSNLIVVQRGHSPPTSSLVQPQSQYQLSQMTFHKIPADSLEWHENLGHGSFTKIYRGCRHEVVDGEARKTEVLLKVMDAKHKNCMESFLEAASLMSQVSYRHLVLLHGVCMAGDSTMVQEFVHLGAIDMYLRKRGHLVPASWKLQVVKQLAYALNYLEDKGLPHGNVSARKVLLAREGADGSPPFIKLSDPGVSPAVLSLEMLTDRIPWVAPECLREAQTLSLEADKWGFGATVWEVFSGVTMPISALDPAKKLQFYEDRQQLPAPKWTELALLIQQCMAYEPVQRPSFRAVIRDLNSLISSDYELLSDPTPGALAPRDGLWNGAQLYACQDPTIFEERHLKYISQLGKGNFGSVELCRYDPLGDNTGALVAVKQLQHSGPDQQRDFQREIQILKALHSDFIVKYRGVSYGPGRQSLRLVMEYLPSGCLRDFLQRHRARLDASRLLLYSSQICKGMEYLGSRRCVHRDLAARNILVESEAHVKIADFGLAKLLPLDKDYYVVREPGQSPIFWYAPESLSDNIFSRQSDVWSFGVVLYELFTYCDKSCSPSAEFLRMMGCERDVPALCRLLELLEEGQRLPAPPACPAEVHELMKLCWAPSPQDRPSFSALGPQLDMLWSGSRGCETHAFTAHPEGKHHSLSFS
How it was run: as §1

JAK2 = molecular target: T4, JAK2 (Homo sapiens, UniProt O60674); experiment: Kinobeads assay with immunodetection, JAK2; format: binding; conditions: mixed Molt4/Ramos lysate, read-out: Inhibition values (IC50) JAK2
T4 construct: endogenous in cells; host or cells: Molt4 (ATCC CRL-1582) and Ramos (ATCC CRL-1596) cells; mixed lysate 1:2
T4 sequence (O60674 whole entry): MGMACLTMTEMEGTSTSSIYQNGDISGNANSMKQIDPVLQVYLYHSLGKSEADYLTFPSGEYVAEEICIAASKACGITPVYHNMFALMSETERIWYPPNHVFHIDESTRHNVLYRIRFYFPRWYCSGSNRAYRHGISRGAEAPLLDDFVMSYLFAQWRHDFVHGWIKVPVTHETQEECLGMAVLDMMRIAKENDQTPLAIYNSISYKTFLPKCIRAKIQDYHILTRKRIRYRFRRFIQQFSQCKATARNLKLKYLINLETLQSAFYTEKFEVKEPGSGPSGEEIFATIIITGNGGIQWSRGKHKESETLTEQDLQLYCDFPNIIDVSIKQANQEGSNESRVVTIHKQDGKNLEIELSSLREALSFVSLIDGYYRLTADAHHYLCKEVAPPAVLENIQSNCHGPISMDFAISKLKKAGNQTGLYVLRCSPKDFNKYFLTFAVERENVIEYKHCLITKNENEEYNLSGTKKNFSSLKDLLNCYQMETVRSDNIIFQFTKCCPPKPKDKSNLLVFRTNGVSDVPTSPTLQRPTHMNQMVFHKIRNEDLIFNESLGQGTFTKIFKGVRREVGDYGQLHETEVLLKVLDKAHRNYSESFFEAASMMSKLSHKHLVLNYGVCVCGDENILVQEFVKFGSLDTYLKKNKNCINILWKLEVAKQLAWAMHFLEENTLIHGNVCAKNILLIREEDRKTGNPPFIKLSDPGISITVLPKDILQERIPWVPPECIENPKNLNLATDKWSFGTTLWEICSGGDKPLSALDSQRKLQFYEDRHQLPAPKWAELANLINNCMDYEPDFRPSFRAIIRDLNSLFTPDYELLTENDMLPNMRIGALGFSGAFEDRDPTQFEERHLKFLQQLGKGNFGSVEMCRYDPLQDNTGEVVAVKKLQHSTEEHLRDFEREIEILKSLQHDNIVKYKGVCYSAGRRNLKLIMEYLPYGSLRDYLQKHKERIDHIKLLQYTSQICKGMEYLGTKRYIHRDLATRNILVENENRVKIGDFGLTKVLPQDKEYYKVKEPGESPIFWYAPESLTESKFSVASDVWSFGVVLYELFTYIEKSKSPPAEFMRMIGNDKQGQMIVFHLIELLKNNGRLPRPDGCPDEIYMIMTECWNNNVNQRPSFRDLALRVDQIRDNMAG
How it was run: as §1

Compound	efficacy in organ transplantation model [1]	severity of GVHD [2]	spontaneous autoimmune diabetes development [3]	IC50 (TYK2)	Selectivity ratio over JAK2, Tyk2 (TYK2)	IC50 (JAK1)	IC50 (JAK3)	IC50 (JAK2)	Selectivity ratio over JAK2, JAK1 (JAK1)	Selectivity ratio over JAK2, JAK3 (JAK3; JAK3 over JAK2)
C[C@@H]1CCN(C(=O)CC#N)C[C@@H]1N(C)c1ncnc2[nH]ccc12 [CP-690,550]	efficacy									
COc1cc2ncnc(Nc3ccc(O)cc3)c2cc1OC [JANEX-1]		attenuate the severity of GVHD	prevent spontaneous autoimmune diabetes development							
Cn1cc(Nc2ncc(Cl)c(NC[C@H]3CCCN3C(=O)NC3CC3)n2)cn1 [Example 89, (R)-2-(((5-chloro-2-((1-methyl-1H-pyrazol-4-yl)amino)pyrimidin-4-yl)amino)methyl)-N-cyclopropylpyrrolidine-1-carboxamide]				< 0.1 µM	Tyk2 = 5	< 0.1 µM	0.1 to 1 µM	0.1 to 1 µM		
CN1C(=O)CCC1CNc1nc(Nc2cnn(C)c2)ncc1Cl (centres unmarked) [Example 78, 5-(((5-chloro-2-((1-methyl-1H-pyrazol-4-yl)amino)pyrimidin-4-yl)amino)methyl)-1-methylpyrrolidin-2-one]				0.1 to 1 µM		0.1 to 1 µM	1 to 10 µM	1 to 10 µM	JAK1 = 38	
CC(=O)N1CC(CNc2nc(Nc3cnn(CCO)c3)ncc2Cl)C1 [Example 17, 1-(3-(((5-chloro-2-((1-(2-hydroxyethyl)-1H-pyrazol-4-yl)amino)pyrimidin-4-yl)amino)methyl)azetidin-1-yl)ethanone]				1 to 10 µM		1 to 10 µM	1 to 10 µM	> 10 µM		
Cn1cc(Nc2ncc(Cl)c(NC[C@@H]3CCCN3C(=O)CCC#N)n2)cn1 [Example 92, (S)-4-(2-(((5-chloro-2-((1-methyl-1H-pyrazol-4-yl)amino)pyrimidin-4-yl)amino)methyl)pyrrolidin-1-yl)-4-oxobutanenitrile]				< 0.1 µM		< 0.1 µM	< 0.1 µM	0.1 to 1 µM	JAK1 = 30	
CN(C)CC(=O)N1CC[C@H](CNc2nc(Nc3cnn(C)c3)ncc2Cl)C1 [Example 59, (R)-1-(3-((5-chloro-2-(1-methyl-1H-pyrazol-4-ylamino)pyrimidin-4-ylamino)methyl)pyrrolidin-1-yl)-2-(dimethylamino)ethanone]				0.1 to 1 µM		0.1 to 1 µM	1 to 10 µM	1 to 10 µM	JAK1 = 33	
OCCn1cc(Nc2ncc(Cl)c(NCC3CCNC3)n2)cn1 (stereo in doubt) [Example 79, (R)-2-(4-((5-chloro-4-((pyrrolidin-3-ylmethyl)amino)pyrimidin-2-yl)amino)-1H-pyrazol-1-yl)ethanol]				0.1 to 1 µM		0.1 to 1 µM	1 to 10 µM	< 0.1 µM	JAK1 = 39	
Cn1cc(Nc2ncc(Cl)c(NC[C@H]3CCCN3CCC(F)(F)F)n2)cn1 [Example 80, (R)-5-chloro-N^2-(1-methyl-1H-pyrazol-4-yl)-N^4-((1-(3,3,3-trifluoropropyl)pyrrolidin-2-yl)methyl)pyrimidine-2,4-diamine]				< 0.1 µM	Tyk2 = 33	< 0.1 µM	0.1 to 1 µM	< 0.1 µM		
Cn1cc(Nc2ncc(Cl)c(NCC3CCCCC3)n2)cn1 [Example 47, 5-chloro-N^4-(cyclohexylmethyl)-N^2-(1-methyl-1H-pyrazol-4-yl)pyrimidine-2,4-diamine]				0.1 to 1 µM		0.1 to 1 µM	0.1 to 1 µM	1 to 10 µM		JAK3 = 5
Cc1cnc(Nc2cnn(C)c2)nc1NC[C@@H]1C[C@H](F)CN1CCC#N [Example 101, 3-((2S,4S)-4-fluoro-2-(((5-methyl-2-((1-methyl-1H-pyrazol-4-yl)amino)pyrimidin-4-yl)amino)methyl)pyrrolidin-1-yl)propanenitrile]				< 0.1 µM		< 0.1 µM	0.1 to 1 µM	0.1 to 1 µM	JAK1 = 17	

— patent US20150005281A1, “PYRIMIDINE-2,4-DIAMINE DERIVATIVES AS KINASE INHIBITORS” (Cellzome Limited, priority 2011, published 2015)
